Results as given in patent publication US9308195B2, “Non-aqueous taxane formulations and methods of using the same” (Teikoku Pharma USA, Inc., priority 2012, dated 2016).

Test: Solubility of anhydrous docetaxel in PEG 400 or PEG 300
Format: physicochemical
Conditions: per 1 g of PEG 300; ultrasonic dispersion for 5 minutes at 70-80° C.
Procedure: Formulations of anhydrous docetaxel and either PEG 400 or PEG 300 were prepared and mixed using ultrasonic dispersion for 5 minutes at 70-80° C. 1 g of PEG 400 dissolved 25 mg of anhydrous docetaxel. […] 1 g of PEG 300 dissolved 100 mg of anhydrous docetaxel. Accordingly, PEG 300 was able to better solubilize anhydrous docetaxel.

- amount of anhydrous docetaxel dissolved by 1 g of PEG 300: ≥ 100 mg
Structure (SMILES): CC(=O)O[C@@]12CO[C@@H]1C[C@H](O)[C@@]1(C)C(=O)[C@H](O)C3=C(C)[C@@H](OC(=O)[C@H](O)[C@@H](NC(=O)OC(C)(C)C)c4ccccc4)C[C@@](O)([C@@H](OC(=O)c4ccccc4)[C@H]21)C3(C)C [anhydrous docetaxel, (2R,3S)-N-carboxy-3-phenylisoserine,Ntert-butyl ester, 13-ester with 5β-20-epoxy-1,2α,4,7β,10β,13α-hexahydroxytax-11-en-9-one 4-acetate 2-benzoate]
